Reference: patent publication US20250091994A1, “RAS/RAF BINDING INHIBITOR COMPOUND” (NATIONAL UNIVERSITY CORPORATION KOBE UNIVERSITY, priority 2021, published 2025)
Like-named read-outs stand apart in the source and are kept apart here.

Columns and labels:
[1] = biological target: GTPγS-bound human HRasG12V / human c-Raf-1 Ras binding domain (RBD) (Homo sapiens (Human), UniProt P01112, G12V); assay: Ras-Raf binding inhibition ELISA
Protocol: The in vitro Ras-Raf binding inhibitory activity of the compound of the present invention was evaluated by an ELISA method (Enzyme-Linked ImmunoSorbent Assay) described below.
Ras and Raf used upon the evaluation were purified and activated by the following method.
Using a pGEX6P-1 vector (GE Healthcare), human HRasG12V (full length, 1-189 amino acid residues) and human c-Raf-1 Ras binding domain (RBD) (50-131 amino acid residues) were each allowed to express as a fusion body with glutathione S-transferase (GST) in E. coli.
GST-HRasG12V-expressing cells were subjected to ultrasonication in a buffer {50 mM Tris-HCl pH 7.4, 150 mM NaCl, 5 mM MgCl2, 1 mM ethylenediaminetetraacetic acid (EDTA), 1 mM dithiothreitol (DTT), 10% glycerol, and 1% Triton-X100}, and were then centrifuged at 100,000×g for 30 minutes, so as to collect the supernatant as a Ras protein fraction. HRasG12V in the supernatant was immobilized on a glutathione-agarose resin, and GST was then cleaved with PreScission Protease (GE Healthcare) for purification. The obtained HRasG12V was mixed with guanosine 5′-O-[gamma-thio]triphosphate trisodium salt (GTPTS) of 1000 times higher concentration at 30° C. for 1 hour, and thereafter, 20 mM MgCl2 (final concentration) was added to stop the reaction and collect the GTPgS-loaded HRasG12V as a product.
On the other hand, GST-c-Raf-1 RBD-expressing cells were subjected to ultrasonication in the same buffer as described above, and were then centrifuged at 100,000×g for 30 minutes, so as to collected the supernatant as a GST-c-Raf-1 RBD protein fraction.
The in vitro Ras-Raf binding inhibitory activity of the compound of the present invention was evaluated by an ELISA method described below.
GST-c-Raf-1 RBD diluted with a Ras-Raf binding buffer (50 mM Tris-HCl pH7.4, 150 mM NaCl, 5 mM MgCl2, 1 mM EDTA, and 1% Triton-X100) was added to each well of a glutathione-coated 96-well plate (Thermo Fisher Scientific.), and was incubated at 30° C. for 1 hour, to immobilize Raf on the well. The unbound free Raf was eliminated by washing the well with the Ras-Raf binding buffer three times. Subsequently, GTPTS-bound HRasG12V diluted with the Ras-Raf binding buffer and each compound solution (final DMSO concentration: 10%) were applied to each well, and the resulting mixture was then incubated at 30° C. for 1 hour, so that Ras and Raf were allowed to bind to each other. Thereafter, the plate was washed with the Ras-Raf binding buffer twice, and was then subjected to a blocking treatment at room temperature for 20 minutes, using TBS-Tween {10 mM Tris-HCl pH 7.4, 150 mM NaCl, and 0.05% (w/v) Tween-20}-5% (w/v) bovine serum albumin (BSA). After that, an anti-HRas antibody (C-20, Santa Cruz) or an anti-HRas antibody (259, Santa Cruz), which had been 1000 times diluted with TBS-Tween-5% BSA, was added to the reaction mixture, and incubated at room temperature for 1 hours. After the treatment with the primary antibody, the plate was washed with TBS-Tween-5% BSA three times, and a horseradish peroxidase-labeled secondary antibody against rabbit immunoglobulin G (GE Healthcare) of 1000 times diluted with TBS-Tween-5% BSA, was added to the plate, followed by incubation at room temperature for 1 hour. After the treatment with the secondary antibody, the plate was washed with TBS-Tween-5% BSA three times, and a substrate solution (TMB) was then added to the plate, followed by incubation at room temperature for 15 minutes for coloration. Finally, 2 M H2SO4 was added to stop color development (coloration reaction kit: Nacalai Tesque). The absorbance at 450 nm (OD450) was measured, so that the color intensity was quantified. Inhibition by the test compound was determined according to the following equation: […]
IC50 (*) in which the anti-HRas antibody (259, Santa Cruz) was used

[2] = tested on: promyelocytic leukemia cells HL60 (N-RasQ61L); assay: Cell growth inhibition, suspension cells HL60; format: cell-based; settings: Homo sapiens, HL-60, 72 hours; for inhibition at 10 µM: read-out: HL-60 (NRasQ61L) % inhibition at 10 μM (***)
Protocol: The cell growth inhibitory activity of the compound of the present invention on human culture cells having active-type mutation in Ras was evaluated by the below-mentioned method using suspension cancer cells {acute lymphoblastic leukemia cells CCRF-CEM (K-RasG12D), promyelocytic leukemia cells HL60 (N-RasQ61L), acute lymphoblastic leukemia cells MOLT4 (N-RasG12C), and small cell lung cancer cells SHP77 (K-RasG12V)} and adherent cancer cells {large bowel cancer cells SW480 (K-RasG12V) and large bowel cancer cell SW620 (K-RasG12V)}.
(Case of suspension cells) The cells suspended in a medium containing 0.5% (v/v) fetal bovine serum (FBS) and each compound solution (final DMSO concentration: 1%) were seeded on a 96-well plate (2 to 4×10^4 cells/well), and the resulting mixture was then cultured at 37° C. in the presence of 5% CO2 for 72 hours.
Thereafter, the number of viable cells was measured using Cell Counting Reagent (Nacalai Tesque) in accordance with the manufacturer's instructions. Inhibition by the test compound was determined according to the following equation: […]

[3] = anti-HRas antibody 259 (*), read-out: ELISA IC50 (μM): 1st Ab_259 (*)
[4] = anti-HRas antibody C-20, read-out: ELISA IC50 (μM): 1st Ab_C-20

Sequence of GTPγS-bound human HRasG12V / human c-Raf-1 Ras binding domain (RBD) (P01112 whole entry G12V, the tested form may be a part): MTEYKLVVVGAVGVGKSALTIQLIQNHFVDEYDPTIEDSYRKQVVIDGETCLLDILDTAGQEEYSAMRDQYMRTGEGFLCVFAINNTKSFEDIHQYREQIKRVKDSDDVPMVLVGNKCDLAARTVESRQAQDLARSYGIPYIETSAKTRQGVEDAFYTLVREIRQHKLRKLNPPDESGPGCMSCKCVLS

CC(=O)N1/C(=C\c2ccc3cc(CNC4C[C@@H](C)O[C@@H](C)C4)ccc3n2)C(=O)c2ccccc21 (mixture of isomers) [Example 136, (Z)-1-acetyl-2-((6-((((2SR,6RS)-2,6-dimethyltetra-hydro-2H-pyran-4-yl)amino)meth-yl)quinolin-2-yl)-methylene)indolin-3-one] showed an IC50 [1, 3] of 1.7 µM.

With CC(=O)N1/C(=C\c2ccc3cc(CNC4CC(C)O[C@H](C)C4)ccc3n2)C(=O)c2ccccc21 (mixture of isomers) [Example 137, (Z)-1-acetyl-2-((6-((((2SR,6SR)-2,6-dimethyltetra-hydro-2H-pyran-4-yl)amino)meth-yl)quinolin-2-yl)-methylene)indolin-3-one] the IC50 [1, 3] was 1.3 µM.

CC(=O)N1/C(=C\c2cc(-c3nc[nH]n3)c3cc(C(=O)N4CCOCC4)ccc3n2)C(=O)c2ccccc21 (racemic) [Example 212, 1-acetyl-2-((6-(morpholine-4-carbonyl)-4-(1H-1,2,4-triazol-3-yl)-quinolin-2-yl)-methylene)indolin-3-one] gave an inhibition at 1 µM [1] of 59.9% and an IC50 [1, 4] of 0.8 µM.

COc1cc(/C=C2/C(=O)c3ccccc3N2C(C)=O)ccc1O [Example 3, 1-acetyl-2-(4-hydroxy-3-meth-oxybenzylidene)-indolin-3-one] showed an inhibition at 100 µM [1] of 57%.

CC(=O)N1/C(=C\c2ccc(OCC(N)=O)cc2)C(=O)c2ccccc21 [Example 5, 2-(4-((1-acetyl-3-oxoindolin-2-ylidene)methyl)-phenoxy)acetamide] was tested, and the inhibition at 100 µM [1] was 71%.

Work on COc1cc(/C=C2/C(=O)c3ccccc3N2C(C)=O)ccc1OCCN1CCOCC1 [Example 7, (Z)-1-acetyl-2-(3-methoxy-4-(2-morpholinoethoxy)-benzylidene)indolin-3-one] yielded an inhibition at 100 µM [1] of 83%.

COc1cc(/C=C2/C(=O)c3ccccc3N2C(C)=O)ccc1OCCOc1ccccc1 [Example 12, 1-acetyl-2-(3-methoxy-4-(2-phenoxyethoxy)-benzylidene)-indolin-3-one] was tested, and the inhibition at 100 µM [1] was 49%.

Work on CC(=O)N1/C(=C\c2ccc(OCC(N)=O)c(OC(C)C)c2)C(=O)c2ccccc21 [Example 30, 2-(4-((1-acetyl-3-oxoindolin-2-ylidene)methyl)-2-isopropoxy-phenoxy)acet-amide] yielded an inhibition at 100 µM [1] of 63%.

CC(=O)N1/C(=C\c2ccc(OCC(=O)N3CCOCC3)c(F)n2)C(=O)c2ccccc21 [Example 32, (Z)-1-acetyl-2-((6-fluoro-5-(2-morpholino-2-oxoethoxy)-pyridin-2-yl)-methylene)-indolin-3-one] was tested, and the IC50 [1, 4] was 14 µM.

In the case of CC(=O)N1/C(=C\c2ccc(C(=O)N3CCOCC3)cn2)C(=O)c2ccccc21 [Example 70, (Z)-1-acetyl-2-((5-(morpholine-4-carbonyl)pyridin-2-yl)methylene)-indolin-3-one], the inhibition at 1 µM ([2]; 1 μM, read-out: HL-60 (NRasQ61L) % inhibition at 1 μM) is reported as 33% and the IC50 [1, 4] is reported as 14 µM.

CC(=O)N1/C(=C\c2ccc3oc(C(=O)N4CCOCC4)cc3n2)C(=O)c2ccccc21 [Example 72, (Z)-1-acetyl-2-((2-(morpholine-4-carbonyl)furo [3,2-b]pyridin-5-yl)methylene)-indolin-3-one] gave an IC50 [1, 3] of 3.6 µM.

In the case of CC(=O)N1/C(=C\c2ccc3cc(CN4CCN(C5COC5)CC4)ccc3n2)C(=O)c2ccccc21 [Example 74, (Z)-1-acetyl-2-((6-((4-(oxetan-3-yl)piperazin-1-yl)methyl)quinolin-2-yl)methylene)-indolin-3-one], the inhibition at 10 µM [2] is reported as 99% and the IC50 [1, 3] is reported as 0.71 µM.

CC(=O)N1/C(=C\c2ccc3cc(/C=C/C(=O)N4CCN(C5COC5)CC4)ccc3n2)C(=O)c2ccccc21 [Example 78] showed an inhibition at 10 µM [2] of 92% and an IC50 [1, 3] of 0.93 µM.

With CC(=O)N1/C(=C\c2nc3cc(C(=O)N4CC(C)OC(C)C4)ccc3s2)C(=O)c2ccccc21 (centres unmarked) [Example 98, (Z)-1-acetyl-2-((5-(2,6-dimethyl-morpholine-4-carbonyl)benzo [d]thiazol-2-yl)-methylene)indolin-3-one] the inhibition at 10 µM [2] was 100% and the IC50 [1, 3] was 0.68 µM.

Work on CC(=O)N1/C(=C/c2nc3ccc(C(=O)N4CC(C)OC(C)C4)cc3s2)C(=O)c2ccccc21 (centres unmarked) [Example 101, (E)-1-acetyl-2-((6-(2,6-dimethyl-morpholine-4-carbonyl)benzo [d]thiazol-2-yl)-methylene)indolin-3-one] yielded an inhibition at 10 µM [2] of 87%.

With CC(=O)N1/C(=C\c2nc3ccc(CNC4CCOCC4)cc3s2)C(=O)c2ccccc21 [Example 134] the IC50 [1, 3] was 1.1 µM.

CC(=O)N1/C(=C/c2nc3ccc(CNC4CCOCC4)cc3s2)C(=O)c2ccccc21 [Example 135, (E)-1-acetyl-2-((6-(((tetrahydro-2H-pyran-4-yl)-amino)methyl)-benzo[d]thiazol-2-yl)methylene)-indolin-3-one] showed an inhibition at 10 µM [2] of 98%.

Work on CC(=O)N1/C(=C\c2cc(-c3cccc4cccnc34)c3cc(C(=O)O)ccc3n2)C(=O)c2ccccc21 [Example 155, (Z)-2-((1-acetyl-3-oxoindolin-2-ylidene)methyl)-[4,8′-biquinoline]-6-carboxylic acid] yielded an inhibition at 1 µM [1] of 59.3% and an IC50 [1, 4] of 0.7 µM.

Work on CC(=O)N1/C(=C\c2cc(-c3ccc(C(=O)O)cc3)c3cc(C(=O)N4CCOCC4)ccc3n2)C(=O)c2ccccc21 [Example 174, (Z)-4-(2-((1-acetyl-3-oxoindolin-2-ylidene)methyl)-6-(morpholine-4-carbonyl)quinolin-4-yl)benzoic acid] yielded an inhibition at 1 µM [1] of 70.1% and an IC50 [1, 4] of 0.5 µM.

Compound CC(=O)N1/C(=C\c2cc(-c3cccc(C(=O)O)c3)c3cc(C(=O)N4CCOCC4)ccc3n2)C(=O)c2ccccc21 [Example 175, (Z)-3-(2-((1-acetyl-3-oxoindolin-2-ylidene)methyl)-6-(morpholine-4-carbonyl)quinolin-4-yl)benzoic acid] has an inhibition at 1 µM [1] of 67.2% and an IC50 [1, 4] of 0.5 µM.

Compound CC(=O)N1/C(=C\c2cc(-c3ccccc3C(=O)O)c3cc(C(=O)N4CCOCC4)ccc3n2)C(=O)c2ccccc21 [Example 176, (Z)-2-(2-((1-acetyl-3-oxoindolin-2-ylidene)methyl)-6-(morpholine-4-carbonyl)quinolin-4-yl)benzoic acid] has an inhibition at 1 µM [1] of 51.1% and an IC50 [1, 4] of 1 µM.

Work on CC(=O)N1/C(=C\c2cc(-c3cccnn3)c3cc(C(=O)N4CCOCC4)ccc3n2)C(=O)c2ccccc21 [Example 191, (Z)-1-acetyl-2-((6-(morpholine-4-carbonyl)-4-(pyridazin-3-yl)-quinolin-2-yl)-methylene)indolin-3-one] yielded an inhibition at 1 µM [1] of 49.2% and an IC50 [1, 4] of 1.1 µM.
